The target of assay [1] is T1, Type-1 angiotensin II receptor (Homo sapiens, UniProt P30556).
T1 sequence (P30556 whole entry): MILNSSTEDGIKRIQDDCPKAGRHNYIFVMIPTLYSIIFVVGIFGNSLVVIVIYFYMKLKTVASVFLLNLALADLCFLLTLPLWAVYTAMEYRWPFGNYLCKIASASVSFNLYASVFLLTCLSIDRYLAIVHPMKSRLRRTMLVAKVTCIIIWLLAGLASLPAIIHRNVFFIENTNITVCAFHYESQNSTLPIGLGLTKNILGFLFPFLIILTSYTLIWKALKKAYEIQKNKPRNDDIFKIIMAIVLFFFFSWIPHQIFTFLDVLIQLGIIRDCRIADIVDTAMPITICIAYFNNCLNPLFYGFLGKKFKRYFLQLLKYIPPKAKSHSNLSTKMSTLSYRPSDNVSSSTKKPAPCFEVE
As to the kind of experiment: Displacement of 125I-labeled Sar1-Ile8-angiotensin II from human AT1 receptor incubated for 2 hrs by gamma counting analysis. (In a radioligand displacement assay an active substance lowers the binding of a labelled ligand.)

Assay [2] addresses T2, Endothelin-1 receptor (Homo sapiens, UniProt P25101).
T2 sequence (P25101 whole entry): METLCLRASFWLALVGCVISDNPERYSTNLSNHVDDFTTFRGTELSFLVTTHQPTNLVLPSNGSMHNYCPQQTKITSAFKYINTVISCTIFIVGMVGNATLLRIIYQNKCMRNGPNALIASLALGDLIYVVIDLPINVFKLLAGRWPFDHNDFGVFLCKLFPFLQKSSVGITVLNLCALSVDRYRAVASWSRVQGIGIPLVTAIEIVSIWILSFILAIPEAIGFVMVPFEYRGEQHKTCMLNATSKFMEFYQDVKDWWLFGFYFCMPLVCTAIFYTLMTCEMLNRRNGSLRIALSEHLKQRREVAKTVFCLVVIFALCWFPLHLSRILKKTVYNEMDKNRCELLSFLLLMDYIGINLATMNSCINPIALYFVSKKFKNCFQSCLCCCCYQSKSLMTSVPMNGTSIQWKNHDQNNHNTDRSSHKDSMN
The experiment in a line: Displacement of 125I-labeled endothelin 1 from human ETA receptor expressed in CHO-K1 cells incubated for 4 hrs by gamma counting analysis. Format: cell-based.

Assay [3] concerns Rattus norvegicus. As to the kind of experiment: Antihypertensive activity in spontaneously hypertensive rat assessed as reduction in blood pressure at 20 mg/kg, po by tail plethysmographic analysis. Format: functional, organism-based.

The values below come from ChEMBL document CHEMBL3734700, “Design, synthesis and biological activity of 4-[(benzimidazol-1-yl)methyl]biphenyl-2-sulphonamides as dual angiotensin II and endothelin A receptor antagonists” (Medchemcomm, 2015).

Calls of active or inactive are those of the source. The rule behind the calls is not given here.

What is called IC50 is the midpoint of a concentration-inhibition curve. Higher therefore signals lower potency. For the molecule `CCCc1nc2c(C)cc(C(=O)NCCc3ccccc3F)cc2n1Cc1ccc(-c2ccccc2S(=O)(=O)Nc2onc(C)c2C)cc1`, the IC50 in assay [1] was 160 nM; in assay [2] it was 262 nM.
Turning to `CCCc1nc2c(C)cc(C(=O)NCc3ccc(OC)c(OC)c3)cc2n1Cc1ccc(-c2ccccc2S(=O)(=O)Nc2onc(C)c2C)cc1`, the figures for the IC50 in assay [1] and in assay [2] were 56 nM and 28000 nM, respectively.
As for `CCCc1nc2c(C)cc(C(=O)NCCN3CCCC3)cc2n1Cc1ccc(-c2ccccc2S(=O)(=O)Nc2onc(C)c2C)cc1`, the figures for the IC50 in assay [1] and in assay [2] were 95 nM and 5500 nM, respectively.
With `CCCc1nc2c(C)cc(C(=O)NCc3ccccc3OC)cc2n1Cc1ccc(-c2ccccc2S(=O)(=O)Nc2onc(C)c2C)cc1`, the IC50 in assay [1] stood at 217 nM; in assay [2] it was 310 nM.
For `CCCc1nc2c(C)cc(C(=O)NCc3cccc(OC)c3)cc2n1Cc1ccc(-c2ccccc2S(=O)(=O)Nc2onc(C)c2C)cc1`, in that order: 50 nM and 898 nM.
Take `CCCCC1=NC2(CCCC2)C(=O)N1Cc1ccc(-c2ccccc2-c2nnn[nH]2)cc1`: the result in assay [3] was Active.
Regarding `CCCc1nc2c(C)cc(C(=O)NCCc3ccccc3)cc2n1Cc1ccc(-c2ccccc2S(=O)(=O)Nc2onc(C)c2C)cc1`, the results for the IC50 in assay [1] and in assay [2] were 8 nM and 956 nM, respectively.
For the molecule `CCCCNC(=O)c1cc(C)c2nc(CCC)n(Cc3ccc(-c4ccccc4S(=O)(=O)Nc4onc(C)c4C)cc3)c2c1`, the IC50 in assay [1] came to 465 nM; in assay [2], 314 nM.
Consider `CCCc1nc2c(C)cc(C(=O)NCc3ccccc3)cc2n1Cc1ccc(-c2ccccc2S(=O)(=O)Nc2onc(C)c2C)cc1`, for which, in assay [3], the outcome was Active. The IC50 in assay [1] is 28 nM; in assay [2], 10 nM.
On to `CCCc1nc2c(C)cc(C(=O)NCCc3cccc(OC)c3)cc2n1Cc1ccc(-c2ccccc2S(=O)(=O)Nc2onc(C)c2C)cc1`, for which the IC50 worked out at 42 nM in assay [1] and 24000 nM in assay [2].
`CCCc1nc2c(C)cc(C(=O)NCCc3ccc(OC)cc3)cc2n1Cc1ccc(-c2ccccc2S(=O)(=O)Nc2onc(C)c2C)cc1`: the IC50 in assay [1] came to 76 nM; in assay [2] it was 200000 nM.
For `CCCc1nc2c(C)cc(C(=O)NC(C)C)cc2n1Cc1ccc(-c2ccccc2S(=O)(=O)Nc2onc(C)c2C)cc1`, in that order: 341 nM and 277 nM.
For the molecule `CCCc1nc2c(C)cc(C(=O)NCCN3CCCCC3)cc2n1Cc1ccc(-c2ccccc2S(=O)(=O)Nc2onc(C)c2C)cc1`, the IC50 in assay [1] is 94 nM; in assay [2], 5800 nM.
Consider `CCCc1nc2c(C)cc(C(=O)NC(C)(C)C)cc2n1Cc1ccc(-c2ccccc2S(=O)(=O)Nc2onc(C)c2C)cc1`, for which the figures for the IC50 in assay [1] and in assay [2] were 385 nM and 140000 nM, respectively.
The like results for `CCCc1nc2c(C)cc(C(=O)NCCc3ccc(F)cc3)cc2n1Cc1ccc(-c2ccccc2S(=O)(=O)Nc2onc(C)c2C)cc1` were, in that order, 152 nM and 56000 nM.
In the case of `CCCc1nc2c(C)cc(C(=O)NCCc3ccc(OC)c(OC)c3)cc2n1Cc1ccc(-c2ccccc2S(=O)(=O)Nc2onc(C)c2C)cc1`, the IC50 amounted to 92 nM in assay [1] and 55000 nM in assay [2].
For the molecule `CCCc1nc2c(C)cc(C(=O)NCCc3cc(OC)ccc3OC)cc2n1Cc1ccc(-c2ccccc2S(=O)(=O)Nc2onc(C)c2C)cc1`, the values for the IC50 in assay [1] and in assay [2] were 37 nM and 3000 nM, respectively.
Regarding `CCCc1nc2c(C)cc(C(=O)NCCN3CCN(C)CC3)cc2n1Cc1ccc(-c2ccccc2S(=O)(=O)Nc2onc(C)c2C)cc1`, the values for the IC50 in assay [1] and in assay [2] were 47 nM and 1800 nM, respectively.
On to `CCCc1nc2c(C)cc(C(=O)Nc3ccccc3)cc2n1Cc1ccc(-c2ccccc2S(=O)(=O)Nc2onc(C)c2C)cc1`, for which the IC50 in assay [1] amounted to 201 nM; in assay [2], 27000 nM.
For `CCCc1nc2c(n1Cc1ccc(-c3ccccc3S(=O)(=O)Nc3onc(C)c3C)c(C#N)c1)C(=O)CCCC2`, in that order: 16 nM and 15 nM.
For the molecule `CCCc1nc2c(C)cc(C(=O)Nc3ccccc3OC)cc2n1Cc1ccc(-c2ccccc2S(=O)(=O)Nc2onc(C)c2C)cc1`, the IC50 in assay [1] came out at 419 nM; in assay [2] it was 137 nM.
For `CCCc1nc2c(C)cc(C(=O)NCc3ccc(OC)cc3)cc2n1Cc1ccc(-c2ccccc2S(=O)(=O)Nc2onc(C)c2C)cc1`, in that order: 81 nM and 388 nM.
In the case of `CCCCc1nn(-c2ccccc2Cl)c(=O)n1Cc1ccc(-c2ccccc2S(=O)(=O)Nc2onc(C)c2C)cc1`, the results for the IC50 in assay [1] and in assay [2] were 7 nM and 11 nM, respectively.
On to `CCCc1nc2c(C)cc(C(=O)NCCN3CCOCC3)cc2n1Cc1ccc(-c2ccccc2S(=O)(=O)Nc2onc(C)c2C)cc1`, for which the IC50 in assay [1] came out at 31 nM; in assay [2], 1400 nM.
The like results for `CCCNC(=O)c1cc(C)c2nc(CCC)n(Cc3ccc(-c4ccccc4S(=O)(=O)Nc4onc(C)c4C)cc3)c2c1` were, in that order, 373 nM and 35000 nM.
As to `CCCc1cc(Cn2c(CC)nc3c(C)cc(C)nc32)ccc1OC(C(=O)NS(=O)(=O)c1ccc(C(C)C)cc1)c1ccc2c(c1)OCO2` (configuration not stated), the values for the IC50 in assay [1] and in assay [2] were 13 nM and 24 nM, respectively.
